Assay results: patent US9770537B2, “Solvent methods for preparing crystalline macrolide particulates, compositions, and articles containing particulates” (SurModics, Inc., priority 2013, dated 2017)
Converted amounts (≈) assume the structure as drawn.

Columns and labels:
[1] = Solubility / saturation point of rapamycin in solvents; assay type: physicochemical; details: xylene at 20° C.
Protocol: Rapamycin has a molecular weight of 914.17 g/mol and molecular formula: C51H79NO13 (see also FIG. 1). It is insoluble in water, but soluble in ethanol (2 mM), methanol (25 mg/mL), DMSO (25 mg/mL), chloroform, (5 mg/mL), ether, acetone and N,N-dimethylformamide. As commercially supplied, rapamycin exists as one isomer (structurally homogeneous) in the solid form as indicated by X-rays whereas in solution there are two conformational isomers (approx. 4:1) which exist in equilibrium.
As a general matter, the macrolide therapeutic can be dissolved and/or dispersed in a desired amount in a solvent, or mixture of solvents, for forming the macrolide particulates. As a general matter, dependent on the solvent or solvent combination, as well as the macrolide being dissolved, it is understood in the composition that the macrolide can display a maximum solubility at a predetermined temperature, such as about 20° C. At the maximum solubility a solution can be referred to as “saturated.” The amount of macrolide dissolved can be described in conventional terms such as mg/mL, % (wt/vol), or molar. For example, the saturation point of rapamycin in many solvents is in the range of 15 mg/mL to 150 mg/mL. […]

[2] = cited from earlier work

SMILES: CO[C@H]1C[C@@H]2CC[C@@H](C)[C@@](O)(O2)C(=O)C(=O)N2CCCC[C@H]2C(=O)O[C@H]([C@H](C)C[C@@H]2CC[C@@H](O)[C@H](OC)C2)CC(=O)[C@H](C)/C=C(\C)[C@@H](O)[C@@H](OC)C(=O)[C@H](C)C[C@H](C)/C=C/C=C/C=C/1C [Rapamycin, rapamycin]
- saturated solution concentration in xylene [1]: about 75 mg/mL
- solubility in chloroform ([2]; chloroform): 5000 µg/mL (≈ 5.47 mM)
- solubility in ethanol ([2]; ethanol): 2000 µM (≈ 1830 µg/mL)
- solubility in ether, acetone and N,N-dimethylformamide ([2]; ether, acetone, N,N-dimethylformamide): soluble
- solubility in water ([2]; water): insoluble
